The subject of assay [1] is Mus musculus. The experiment in a line: Anticonvulsant activity against pentylenetetrazole-induced seizures in Mus musculus NMRI (mouse) assessed as time of maximal effect at 5 mg/kg, ip administered 30 min before PTZ challenge. The assay is classed as functional. Conditions: route intraperitoneal.
For assay [2], the target named is Voltage-dependent L-type calcium channel subunit alpha-1C (Cavia porcellus, UniProt O35505). The assay can be described thus: Antagonist activity at Calcium channel in Cavia porcellus (guinea pig) ileal smooth muscle assessed as inhibition of 40 mM KCl-induced contraction compound pretreated for 15 min before KCl treatment.
In assay [3] the test system is Mus musculus. The assay can be described thus: Anticonvulsant activity against pentylenetetrazole-induced seizures in Mus musculus NMRI (mouse) assessed as time of maximal effect at 20 mg/kg, ip administered 30 min before PTZ challenge. The assay is classed as functional. Conditions: route intraperitoneal.
Assay [4] concerns Mus musculus. The assay can be described thus: Anticonvulsant activity against pentylenetetrazole-induced seizures in Mus musculus NMRI (mouse) assessed as time of maximal effect at 10 mg/kg, ip administered 30 min before PTZ challenge (reference value: 24.86 +/- 0.96 min). The note with it: route intraperitoneal. The assay is classed as functional.
Assay [5] concerns Mus musculus. The experiment in a line: Anticonvulsant activity against pentylenetetrazole-induced seizures in Mus musculus NMRI (mouse) assessed as time of maximal effect at 5 mg/kg, ip administered 15 min before PTZ challenge. It is filed as functional. The note with it: route intraperitoneal.
Assay [6] relates to Mus musculus. The experiment in a line: Anticonvulsant activity against pentylenetetrazole-induced seizures in Mus musculus NMRI (mouse) assessed as time of maximal effect at 20 mg/kg, ip administered 15 min before PTZ challenge. The assay is classed as functional. The note with it: route intraperitoneal.
The test system of assay [7] is Mus musculus. The assay can be described thus: Anticonvulsant activity against pentylenetetrazole-induced seizures in Mus musculus NMRI (mouse) assessed as time of maximal effect at 10 mg/kg, ip administered 15 min before PTZ challenge (reference value: 24.86 +/- 0.96 min). It is filed as functional. The note with it: route intraperitoneal.
Assay [8] concerns Mus musculus. The assay can be described thus: Anticonvulsant activity against pentylenetetrazole-induced seizures in Mus musculus NMRI (mouse) assessed as time of maximal effect at 5 mg/kg, ip administered 60 min before PTZ challenge. It is filed as functional. Conditions: route intraperitoneal.
Assay [9] relates to Mus musculus. The experiment in a line: Anticonvulsant activity against pentylenetetrazole-induced seizures in Mus musculus NMRI (mouse) assessed as time of maximal effect at 60 mg/kg, ip administered 15 min before PTZ challenge (reference value: 24.86 +/- 0.96 min). The assay is classed as functional. The note with it: route intraperitoneal.
In assay [10] the test system is Mus musculus. The experiment in a line: Anticonvulsant activity against pentylenetetrazole-induced seizures in Mus musculus NMRI (mouse) assessed as time of maximal effect at 20 mg/kg, ip administered 60 min before PTZ challenge. It is filed as functional. The note with it: route intraperitoneal.

The source of these data is ChEMBL document CHEMBL3045495, “Lipophilic 2-(4-chlorophenyl)-4-thiazolyl-1,4-dihydropyridines: synthesis, calcium channel antagonist activity, and protection against pentylenetetrazole-induced seizure” (Med Chem Res, 2009).

Chain of Voltage-dependent L-type calcium channel subunit alpha-1C (O35505 whole entry): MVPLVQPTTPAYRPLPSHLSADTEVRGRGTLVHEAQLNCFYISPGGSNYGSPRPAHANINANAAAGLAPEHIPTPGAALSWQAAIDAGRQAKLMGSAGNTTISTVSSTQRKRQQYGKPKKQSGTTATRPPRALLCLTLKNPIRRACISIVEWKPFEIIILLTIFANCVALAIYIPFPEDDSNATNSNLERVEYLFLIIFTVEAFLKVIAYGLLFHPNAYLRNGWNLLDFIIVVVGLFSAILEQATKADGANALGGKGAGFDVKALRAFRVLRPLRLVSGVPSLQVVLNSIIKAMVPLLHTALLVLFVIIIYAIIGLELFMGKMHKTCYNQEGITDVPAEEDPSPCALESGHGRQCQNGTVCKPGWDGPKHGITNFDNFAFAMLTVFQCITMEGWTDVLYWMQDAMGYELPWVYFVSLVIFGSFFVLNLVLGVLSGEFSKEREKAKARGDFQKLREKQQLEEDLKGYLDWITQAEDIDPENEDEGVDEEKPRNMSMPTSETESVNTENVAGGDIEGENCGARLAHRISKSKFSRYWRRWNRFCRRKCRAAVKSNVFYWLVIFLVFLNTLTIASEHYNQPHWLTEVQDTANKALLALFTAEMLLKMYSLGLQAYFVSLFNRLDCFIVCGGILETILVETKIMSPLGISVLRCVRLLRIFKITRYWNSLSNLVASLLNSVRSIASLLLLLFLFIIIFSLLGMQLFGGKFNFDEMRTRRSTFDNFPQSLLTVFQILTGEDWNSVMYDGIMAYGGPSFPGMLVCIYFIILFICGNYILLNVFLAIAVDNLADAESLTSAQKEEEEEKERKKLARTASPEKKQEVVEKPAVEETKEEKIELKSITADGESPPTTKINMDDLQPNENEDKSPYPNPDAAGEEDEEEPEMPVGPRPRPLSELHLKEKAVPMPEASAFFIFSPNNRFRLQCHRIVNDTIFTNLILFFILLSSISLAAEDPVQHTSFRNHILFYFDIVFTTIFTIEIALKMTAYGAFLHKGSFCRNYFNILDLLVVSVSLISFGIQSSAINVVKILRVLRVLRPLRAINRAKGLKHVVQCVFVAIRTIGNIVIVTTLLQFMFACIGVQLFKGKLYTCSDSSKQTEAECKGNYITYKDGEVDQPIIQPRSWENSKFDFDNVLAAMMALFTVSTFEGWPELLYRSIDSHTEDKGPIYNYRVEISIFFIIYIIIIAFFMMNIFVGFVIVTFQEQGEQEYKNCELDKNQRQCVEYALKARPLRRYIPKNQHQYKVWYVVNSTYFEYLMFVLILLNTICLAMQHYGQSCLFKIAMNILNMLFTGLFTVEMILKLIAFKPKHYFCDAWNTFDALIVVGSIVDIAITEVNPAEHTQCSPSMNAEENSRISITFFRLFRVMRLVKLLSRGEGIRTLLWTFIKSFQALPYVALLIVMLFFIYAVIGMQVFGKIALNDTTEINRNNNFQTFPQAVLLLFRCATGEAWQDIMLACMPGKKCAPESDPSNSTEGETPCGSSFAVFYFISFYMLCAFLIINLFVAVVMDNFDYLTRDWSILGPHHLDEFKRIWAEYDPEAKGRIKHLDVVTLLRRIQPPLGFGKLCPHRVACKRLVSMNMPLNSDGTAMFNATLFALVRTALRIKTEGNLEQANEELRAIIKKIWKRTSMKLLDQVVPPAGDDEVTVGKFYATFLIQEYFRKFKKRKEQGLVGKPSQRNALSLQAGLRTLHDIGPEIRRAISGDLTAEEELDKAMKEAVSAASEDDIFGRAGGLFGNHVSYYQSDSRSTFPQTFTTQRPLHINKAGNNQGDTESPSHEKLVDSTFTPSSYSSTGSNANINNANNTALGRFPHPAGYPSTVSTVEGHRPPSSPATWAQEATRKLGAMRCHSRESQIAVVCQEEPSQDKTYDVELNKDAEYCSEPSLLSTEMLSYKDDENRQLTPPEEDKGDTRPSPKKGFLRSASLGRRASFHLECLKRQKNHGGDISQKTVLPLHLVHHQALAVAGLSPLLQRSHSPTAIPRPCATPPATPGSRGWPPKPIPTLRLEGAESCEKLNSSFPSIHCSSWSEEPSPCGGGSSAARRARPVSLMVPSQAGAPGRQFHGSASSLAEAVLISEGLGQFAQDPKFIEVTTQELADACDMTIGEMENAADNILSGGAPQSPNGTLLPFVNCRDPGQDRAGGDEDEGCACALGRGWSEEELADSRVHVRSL

For the compound `COC(=O)C1=C(C)NC(C)=C(C(=O)OC)C1c1csc(-c2ccc(Cl)cc2)n1`, the Time in assay [1] was 39.05 min; in assay [3], 44.3 min; in assay [4], 40.94 min. For the same compound, in assay [2], the IC50 is 4.43 µM.

`CCOC(=O)C1=C(C)NC(C)=C(C(=O)OCC)C1c1csc(-c2ccc(Cl)cc2)n1`: the Time in assay [1] is given as 27.76 min; in [3], 39.07 min; in assay [4], 32.64 min. In addition, the 50% inhibitory concentration (IC50) in assay [2] was 3.65 µM.

Take `CCCOC(=O)C1=C(C)NC(C)=C(C(=O)OCCC)C1c1csc(-c2ccc(Cl)cc2)n1`: the Time in [1] was 34.75 min; in [3] it was 42.05 min; in assay [4], 36.26 min. In [2], the half-inhibitory concentration (IC50) was determined as 4.8 µM.

As for `CC1=C(C(=O)OC(C)C)C(c2csc(-c3ccc(Cl)cc3)n2)C(C(=O)OC(C)C)=C(C)N1`, the IC50 in assay [2] turned out to be 37.2 µM.

With `CC1=C(C(=O)OCC(C)C)C(c2csc(-c3ccc(Cl)cc3)n2)C(C(=O)OCC(C)C)=C(C)N1`, the Time is given as 37.5 min in assay [1], 47.62 min in assay [3] and 39.32 min in [4]. Also, in [2], the IC50 came out at 24.9 µM.

Take `CC1=C(C(=O)OC(C)(C)C)C(c2csc(-c3ccc(Cl)cc3)n2)C(C(=O)OC(C)(C)C)=C(C)N1`: the IC50 in assay [2] is 21 µM.

On to `CC1=C(C(=O)OC2CCCC2)C(c2csc(-c3ccc(Cl)cc3)n2)C(C(=O)OC2CCCC2)=C(C)N1`, for which, in [2], the half-inhibitory concentration (IC50) was found to be 19 µM.

On to `CC1=C(C(=O)OC2CCCCC2)C(c2csc(-c3ccc(Cl)cc3)n2)C(C(=O)OC2CCCCC2)=C(C)N1`, for which the figures for the Time in assay [5], in [6] and in assay [7] were 35.65 min, 37.86 min and 35.59 min, respectively. Also, the IC50 in assay [2] stood at 11 µM.

As to `CC1=C(C(=O)OCc2ccccc2)C(c2csc(-c3ccc(Cl)cc3)n2)C(C(=O)OCc2ccccc2)=C(C)N1`, the 50% inhibitory concentration (IC50) in assay [2] stood at 11 µM.

For `CC1=C(C(=O)OCCc2ccccc2)C(c2csc(-c3ccc(Cl)cc3)n2)C(C(=O)OCCc2ccccc2)=C(C)N1`, the IC50 in [2] was determined as 500 µM.

For `CC1=C(C(=O)OC(C)c2ccccc2)C(c2csc(-c3ccc(Cl)cc3)n2)C(C(=O)OC(C)c2ccccc2)=C(C)N1` (centres undefined), in assay [2], the IC50 amounted to 400 µM.

As for `CCOC(=O)C1=C(C)NC(C)=C(C(=O)OC)C1c1csc(-c2ccc(Cl)cc2)n1` (centres undefined), in [2], the IC50 came to 22 µM.

Take `CCCOC(=O)C1=C(C)NC(C)=C(C(=O)OC)C1c1csc(-c2ccc(Cl)cc2)n1` (centres undefined): the Time in assay [1] came to 31.7 min; in assay [3] it was 43.8 min; in assay [4], 37.6 min. For the same compound, the IC50 in [2] amounted to 5.92 µM.

`CCCOC(=O)C1=C(C)NC(C)=C(C(=O)OCC)C1c1csc(-c2ccc(Cl)cc2)n1` (centres undefined): the IC50 in [2] turned out to be 4.09 µM. In addition, the figures for the Time in assay [8], in assay [9] and in assay [10] were 34.5 min, 37.07 min and 42.32 min, respectively.

Regarding `COC(=O)C1=C(C)NC(C)=C(C(=O)OC(C)C)C1c1csc(-c2ccc(Cl)cc2)n1` (centres undefined), the IC50 in [2] turned out to be 13.6 µM.

Consider `CCOC(=O)C1=C(C)NC(C)=C(C(=O)OC(C)C)C1c1csc(-c2ccc(Cl)cc2)n1` (centres undefined), for which the results for the Time in assay [1], in assay [3] and in assay [4] were 34.2 min, 44.64 min and 35.87 min, respectively. For the same compound, in [2], the IC50 is 2.55 µM.

With `COC(=O)C1=C(C)NC(C)=C(C(=O)OCC(C)C)C1c1csc(-c2ccc(Cl)cc2)n1` (centres undefined), the half-inhibitory concentration (IC50) in assay [2] was 46.9 µM.

In the case of `CCOC(=O)C1=C(C)NC(C)=C(C(=O)OCC(C)C)C1c1csc(-c2ccc(Cl)cc2)n1` (centres undefined), the IC50 in [2] was found to be 15.4 µM.

In the case of `COC(=O)C1=C(C)NC(C)=C(C(=O)OC(C)(C)C)C1c1csc(-c2ccc(Cl)cc2)n1` (centres undefined), the IC50 in assay [2] amounted to 46 µM.

Consider `CCOC(=O)C1=C(C)NC(C)=C(C(=O)OC(C)(C)C)C1c1csc(-c2ccc(Cl)cc2)n1` (centres undefined), for which the IC50 in assay [2] came out at 91 µM.

Regarding `COC(=O)C1=C(C)NC(C)=C(C(=O)OC2CCCC2)C1c1csc(-c2ccc(Cl)cc2)n1` (centres undefined), the Time is 33.22 min in assay [1], 42.7 min in [3] and 34.42 min in assay [4]. Besides, the IC50 in assay [2] stood at 7.29 µM.

Turning to `CCOC(=O)C1=C(C)NC(C)=C(C(=O)OC2CCCC2)C1c1csc(-c2ccc(Cl)cc2)n1` (centres undefined), the results for the Time in assay [1], in assay [3] and in assay [4] were 39.6 min, 47.8 min and 38.8 min, respectively. In [2], the IC50 worked out at 8.38 µM.

For the compound `COC(=O)C1=C(C)NC(C)=C(C(=O)OC2CCCCC2)C1c1csc(-c2ccc(Cl)cc2)n1` (centres undefined), the IC50 in assay [2] is 71.9 µM.

As for `CCOC(=O)C1=C(C)NC(C)=C(C(=O)OC2CCCCC2)C1c1csc(-c2ccc(Cl)cc2)n1` (centres undefined), the IC50 in assay [2] turned out to be 100 µM.

Regarding `COC(=O)C1=C(C)NC(C)=C(C(=O)OCc2ccccc2)C1c1csc(-c2ccc(Cl)cc2)n1` (centres undefined), the IC50 in assay [2] came out at 64.9 µM.

Take `CCOC(=O)C1=C(C)NC(C)=C(C(=O)OCc2ccccc2)C1c1csc(-c2ccc(Cl)cc2)n1` (centres undefined): the half-maximal inhibitory concentration (IC50) in assay [2] was 3.29 µM. Further, the values for the Time in [8], in [9] and in assay [10] were 33.87 min, 37.82 min and 39.6 min, respectively.

As to `COC(=O)C1=C(C)NC(C)=C(C(=O)OCCc2ccccc2)C1c1csc(-c2ccc(Cl)cc2)n1` (centres undefined), the IC50 in assay [2] was determined as 10.2 µM.

Turning to `CCOC(=O)C1=C(C)NC(C)=C(C(=O)OCCc2ccccc2)C1c1csc(-c2ccc(Cl)cc2)n1` (centres undefined), in [2], the IC50 was 12.1 µM.

`COC(=O)C1=C(C)NC(C)=C(C(=O)OC(C)c2ccccc2)C1c1csc(-c2ccc(Cl)cc2)n1` (centres undefined): the Time amounted to 27.82 min in assay [1], 43.06 min in [3] and 42.1 min in assay [4]. Besides, the IC50 in assay [2] turned out to be 7.62 µM.

Turning to `CCOC(=O)C1=C(C)NC(C)=C(C(=O)OC(C)c2ccccc2)C1c1csc(-c2ccc(Cl)cc2)n1` (centres undefined), the IC50 in assay [2] amounted to 13.8 µM.

`COC(=O)C1=C(C)NC(C)=C(C(=O)OC)C1c1ccccc1[N+](=O)[O-]` [NIFEDIPINE]: the Time in assay [1] is given as 40.66 min; in [3], 48.3 min; in assay [4], 43.88 min.
